Data set [1] deals with T1, Prostaglandin D2 receptor 2 (Homo sapiens, UniProt Q9Y5Y4).
T1 sequence (Q9Y5Y4 whole entry): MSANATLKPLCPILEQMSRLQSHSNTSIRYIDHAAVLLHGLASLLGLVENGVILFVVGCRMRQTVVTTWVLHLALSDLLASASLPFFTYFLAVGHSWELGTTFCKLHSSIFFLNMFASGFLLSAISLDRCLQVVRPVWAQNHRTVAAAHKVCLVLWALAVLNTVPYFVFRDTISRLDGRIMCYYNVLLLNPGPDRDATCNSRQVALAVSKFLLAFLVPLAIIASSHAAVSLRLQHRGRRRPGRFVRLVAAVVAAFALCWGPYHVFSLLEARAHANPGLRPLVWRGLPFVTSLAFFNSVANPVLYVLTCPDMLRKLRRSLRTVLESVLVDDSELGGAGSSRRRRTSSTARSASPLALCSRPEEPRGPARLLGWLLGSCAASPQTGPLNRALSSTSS
Description: Displacement of [3H]-PGD2 from CRTh2 receptor by scintillation proximity assay.

Data set [2] can be described thus: Intrinsic clearance in rat hepatocytes assessed per 1 x 10^6 cells.
Data set [3] can be described thus: Intrinsic clearance in human liver microsomes.
A short description of data set [4]: Aqueous solubility of the compound in buffer at pH 7.4. In kind it is physicochemical.
Data set [5] has as its target T1, Prostaglandin D2 receptor 2. The data set can be described thus: Antagonist activity at human CRTh2 receptor expressed in CHO cells assessed as inhibition of PGD2-induced calcium flux in presence of 1% bovine serum albumin. In kind it is functional, cell-based.
Data set [6] in a line: Oral bioavailability in rat. It is filed as ADME, organism-based. To be noted: in vivo.
Data set [7] has as its target T2, Cytochrome P450 1A2 (Homo sapiens, UniProt P05177).
T2 sequence (P05177 whole entry): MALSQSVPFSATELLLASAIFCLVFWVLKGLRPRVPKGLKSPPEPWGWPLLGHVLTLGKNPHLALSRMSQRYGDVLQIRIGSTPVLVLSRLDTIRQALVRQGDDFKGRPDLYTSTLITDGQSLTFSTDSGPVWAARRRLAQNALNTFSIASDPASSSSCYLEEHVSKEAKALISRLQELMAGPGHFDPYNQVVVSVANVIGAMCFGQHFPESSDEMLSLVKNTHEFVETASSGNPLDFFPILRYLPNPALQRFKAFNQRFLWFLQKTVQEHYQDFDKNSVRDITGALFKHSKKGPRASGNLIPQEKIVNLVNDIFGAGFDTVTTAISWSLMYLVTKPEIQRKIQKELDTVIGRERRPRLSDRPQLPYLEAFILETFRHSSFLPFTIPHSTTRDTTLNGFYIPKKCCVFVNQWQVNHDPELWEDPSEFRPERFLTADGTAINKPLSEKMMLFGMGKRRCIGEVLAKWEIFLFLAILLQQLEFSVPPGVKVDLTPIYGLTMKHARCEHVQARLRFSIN
Description: Inhibition of CYP1A2. It is filed as ADME.

The target in data set [8] is Cytochrome P450 3A4 (Homo sapiens, UniProt P08684). Description: Inhibition of CYP3A4. In kind it is ADME.
In data set [9] the target is Cytochrome P450 2C9 (Homo sapiens, UniProt P11712). The data set can be described thus: Inhibition of CYP2C9. In kind it is ADME.
Data set [10] concerns the target Cytochrome P450 2C19 (Homo sapiens, UniProt P33261). Description: Inhibition of CYP2C19. In kind it is ADME.
The target in data set [11] is Cytochrome P450 2D6 (Homo sapiens, UniProt P10635). The data set can be described thus: Inhibition of CYP2D6. In kind it is ADME.
Data set [12] concerns the target T3, Prostaglandin D2 receptor 2 (Mus musculus, UniProt Q9Z2J6).
T3 sequence (Q9Z2J6 whole entry): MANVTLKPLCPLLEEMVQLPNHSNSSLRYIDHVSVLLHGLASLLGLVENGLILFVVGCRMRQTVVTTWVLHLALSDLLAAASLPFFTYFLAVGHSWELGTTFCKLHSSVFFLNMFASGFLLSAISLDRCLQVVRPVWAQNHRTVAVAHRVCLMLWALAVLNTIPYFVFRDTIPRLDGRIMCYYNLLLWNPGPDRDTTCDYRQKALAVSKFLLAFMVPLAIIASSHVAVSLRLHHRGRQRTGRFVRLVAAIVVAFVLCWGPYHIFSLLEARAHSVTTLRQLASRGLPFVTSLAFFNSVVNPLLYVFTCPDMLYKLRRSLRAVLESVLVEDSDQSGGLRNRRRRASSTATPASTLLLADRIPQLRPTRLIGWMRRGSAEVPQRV
The data set can be described thus: Binding affinity to mouse CRTh2 receptor.

Data set [13] concerns the target T4, Prostaglandin D2 receptor 2 (Rattus norvegicus, UniProt Q6XKD3).
T4 sequence (Q6XKD3 whole entry): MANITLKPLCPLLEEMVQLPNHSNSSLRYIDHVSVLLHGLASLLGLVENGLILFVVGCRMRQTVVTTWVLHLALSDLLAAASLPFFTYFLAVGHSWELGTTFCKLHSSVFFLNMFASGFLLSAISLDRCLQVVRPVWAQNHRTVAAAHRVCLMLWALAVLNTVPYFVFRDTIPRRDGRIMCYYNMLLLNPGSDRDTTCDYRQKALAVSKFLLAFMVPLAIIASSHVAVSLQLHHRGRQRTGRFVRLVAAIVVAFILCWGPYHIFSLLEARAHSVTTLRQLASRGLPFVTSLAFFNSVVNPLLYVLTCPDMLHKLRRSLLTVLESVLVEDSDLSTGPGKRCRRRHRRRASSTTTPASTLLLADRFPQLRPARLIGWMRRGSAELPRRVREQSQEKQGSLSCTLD
Description: Binding affinity to rat CRTh2 receptor.

The target in data set [14] is T5, Chemoattractant receptor-homologous molecule expressed on Th2 cells (Cavia porcellus, UniProt Q56D28).
T5 sequence (Q56D28 whole entry): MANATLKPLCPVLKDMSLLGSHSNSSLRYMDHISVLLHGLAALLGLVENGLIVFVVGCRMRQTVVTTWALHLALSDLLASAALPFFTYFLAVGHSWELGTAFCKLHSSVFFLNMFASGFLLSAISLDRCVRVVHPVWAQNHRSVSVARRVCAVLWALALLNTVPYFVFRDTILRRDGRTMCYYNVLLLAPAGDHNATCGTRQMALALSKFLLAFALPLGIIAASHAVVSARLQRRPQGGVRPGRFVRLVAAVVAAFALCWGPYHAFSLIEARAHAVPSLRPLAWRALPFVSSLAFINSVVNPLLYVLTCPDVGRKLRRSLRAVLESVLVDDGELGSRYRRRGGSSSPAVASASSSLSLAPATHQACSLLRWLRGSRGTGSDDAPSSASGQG
Description: Binding affinity to guinea pig CRTh2 receptor.

Data set [15] in a line: Oral bioavailability in dog. It is filed as ADME, organism-based, Canis lupus familiaris. The note with it: in vivo.
The species entered for data set [16] is Mus musculus. The data set can be described thus: Protection against 11 days tobacco smoke-induced mucosal damage in mouse lung assessed as inhibition of inflammatory cells accumulation. It is filed as functional, organism-based.
A short description of data set [17]: Fraction unbound in human plasma. It is filed as ADME, cell-free.
Data set [18] is described as follows: Fraction unbound in rat plasma. In kind it is ADME, cell-free.
The nature of data set [19]: Fraction unbound in dog plasma. It is filed as ADME, cell-free, Canis lupus familiaris.
Data set [20] can be described thus: Fraction unbound in cynomolgus monkey plasma. In kind it is ADME, cell-free, Macaca fascicularis.
Data set [21] is described as follows: Half life in iv dosed rat. To be noted: in vivo.

The source made the active and inactive calls. The calls are words filed in the database; no cut-off is given here.

Sequence of Cytochrome P450 2C19 (P33261 whole entry): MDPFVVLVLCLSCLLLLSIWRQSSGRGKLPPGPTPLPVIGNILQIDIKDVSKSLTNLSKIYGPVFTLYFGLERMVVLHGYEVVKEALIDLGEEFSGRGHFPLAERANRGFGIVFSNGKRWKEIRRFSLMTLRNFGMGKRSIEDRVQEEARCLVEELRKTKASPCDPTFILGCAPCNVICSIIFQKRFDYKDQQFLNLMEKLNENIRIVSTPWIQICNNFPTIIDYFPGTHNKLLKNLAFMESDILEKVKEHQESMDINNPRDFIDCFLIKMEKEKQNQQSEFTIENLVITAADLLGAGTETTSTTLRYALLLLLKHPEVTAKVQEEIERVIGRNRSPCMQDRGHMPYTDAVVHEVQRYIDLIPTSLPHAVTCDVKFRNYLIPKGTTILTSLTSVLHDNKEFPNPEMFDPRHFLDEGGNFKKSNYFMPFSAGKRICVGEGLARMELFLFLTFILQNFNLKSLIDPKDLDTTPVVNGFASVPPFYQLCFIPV
Sequence of Cytochrome P450 3A4 (P08684 whole entry): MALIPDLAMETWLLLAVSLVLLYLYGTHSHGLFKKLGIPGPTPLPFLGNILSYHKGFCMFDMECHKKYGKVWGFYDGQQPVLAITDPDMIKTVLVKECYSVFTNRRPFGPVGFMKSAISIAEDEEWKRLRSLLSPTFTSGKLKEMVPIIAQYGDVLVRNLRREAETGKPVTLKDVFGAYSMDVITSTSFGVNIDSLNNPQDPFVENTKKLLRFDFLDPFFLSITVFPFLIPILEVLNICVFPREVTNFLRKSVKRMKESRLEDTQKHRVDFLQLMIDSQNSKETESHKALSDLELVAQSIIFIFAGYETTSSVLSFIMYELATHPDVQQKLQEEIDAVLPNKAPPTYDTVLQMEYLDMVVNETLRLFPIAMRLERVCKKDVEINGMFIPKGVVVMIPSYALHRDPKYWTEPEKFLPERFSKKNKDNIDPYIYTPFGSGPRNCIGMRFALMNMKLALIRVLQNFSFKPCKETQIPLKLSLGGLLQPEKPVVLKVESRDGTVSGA
Sequence of Cytochrome P450 2C9 (P11712 whole entry): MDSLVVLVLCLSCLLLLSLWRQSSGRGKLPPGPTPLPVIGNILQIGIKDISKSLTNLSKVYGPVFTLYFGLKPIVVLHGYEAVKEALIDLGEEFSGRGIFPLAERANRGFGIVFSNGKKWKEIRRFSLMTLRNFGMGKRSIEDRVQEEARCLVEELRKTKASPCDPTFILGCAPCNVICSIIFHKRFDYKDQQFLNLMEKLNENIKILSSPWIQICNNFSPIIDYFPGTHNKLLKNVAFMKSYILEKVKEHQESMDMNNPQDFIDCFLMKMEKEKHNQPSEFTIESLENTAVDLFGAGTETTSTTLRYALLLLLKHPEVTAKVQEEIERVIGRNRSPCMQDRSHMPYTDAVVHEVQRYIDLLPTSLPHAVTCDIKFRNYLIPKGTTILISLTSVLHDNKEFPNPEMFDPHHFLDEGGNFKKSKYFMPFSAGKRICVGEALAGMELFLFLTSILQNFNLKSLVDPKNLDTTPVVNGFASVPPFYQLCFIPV
Sequence of Cytochrome P450 2D6 (P10635 whole entry): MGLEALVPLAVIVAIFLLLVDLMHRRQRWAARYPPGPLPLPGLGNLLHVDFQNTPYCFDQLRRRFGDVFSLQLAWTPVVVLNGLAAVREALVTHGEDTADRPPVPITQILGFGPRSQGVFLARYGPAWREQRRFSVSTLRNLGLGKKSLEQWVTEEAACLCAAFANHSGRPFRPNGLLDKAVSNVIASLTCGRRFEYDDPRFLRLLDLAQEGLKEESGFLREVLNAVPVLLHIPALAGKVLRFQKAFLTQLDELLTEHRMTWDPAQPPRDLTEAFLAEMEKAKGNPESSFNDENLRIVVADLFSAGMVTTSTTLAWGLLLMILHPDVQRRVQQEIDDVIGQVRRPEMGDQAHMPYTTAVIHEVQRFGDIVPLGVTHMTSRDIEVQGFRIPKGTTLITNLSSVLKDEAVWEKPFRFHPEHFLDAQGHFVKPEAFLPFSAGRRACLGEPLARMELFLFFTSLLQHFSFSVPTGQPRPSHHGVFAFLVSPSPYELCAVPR

The compound `O=C(O)COc1ccc(C(F)(F)F)cc1-c1ccccc1` gave an IC50 in data set [1] of 45 nM. Besides, the hepatocyte CLint in data set [2] is 3 µL/min/1e6 cells. In data set [3] (liver microsomes), this compound showed a microsomal CLint below 3 µL/min/mg. The compound further gave a solubility in data set [4] above 80 µM.

For `CCS(=O)(=O)c1ccc(-c2cc(C(F)(F)F)ccc2OCC(=O)O)c(C)c1`, the IC50 is 0.9 nM in [1]; 29 nM in [5]; above 50000 nM in data set [7]; above 50000 nM in data set [8]; above 50000 nM in [9]; above 50000 nM in data set [10]. Also, the IC50 was above 50000 nM in data set [11], 1 nM in data set [12], 1.3 nM in data set [13] and 63 nM in data set [14]. Further, the results for the bioavailability in data set [6] and in [15] were 42% and 46%, respectively. Also, the outcome in [16] was Active. The fraction unbound in data set [17] stood at 0.046; in data set [18], 0.056; in data set [19], 0.03; in data set [20], 0.026.

In the case of `N#Cc1cccc(-c2cc(Cl)ccc2OCC(=O)O)c1`, the IC50 was found to be 1.7 nM in data set [1] and 10 nM in [5]. Further, the hepatocyte CLint in [2] came to 5 µL/min/1e6 cells. The microsomal CLint in data set [3] (microsomes) is below 3 µL/min/mg. For the same compound, in data set [21], the half-life is 2.3 h. In addition, the bioavailability in [6] came out at 96%.

The record behind these values is ChEMBL document CHEMBL1777748 (Bioorg Med Chem Lett, 2011).
